The source of these data is patent publication US20140107316A1, “DRUG DELIVERY CONJUGATES CONTAINING UNNATURAL AMINO ACIDS AND METHODS FOR USING” (priority 2012, published 2014).

pIC50: −log10 of the molar value.

Series [1] relates to collagen-induced arthritis. Description: Collagen-Induced Arthritis (CIA) Model. Format: in vivo, female Lewis rats. As to conditions: ten consecutive subcutaneous doses days 10-19; 500 nmol/kg induction, 100 nmol/kg maintenance. As for the experimental part: Collagen-Induced Arthritis (CIA) Model. The collagen-induced arthritis (CIA) was induced in female Lewis rats on folate-deficient diet (Harlan Teklad, Indianapolis, Ind.). On Day 0, rats were immunized with 500 μg of bovine collagen Type II (Chondrex, Redmond, Wash.) formulated with Freund's complete adjuvant. A booster immunization was given on Day 7 with 250 μg of the bovine collagen formulated with Freund's incomplete adjuvant. Arthritis disease was assessed by a qualitative clinical score system described by the manufacturer (Chondrex, Redmond, Wash.): 0=normal, 1=Mild, but definite redness and swelling of the ankle or wrist, or apparent redness and swelling limited to individual digits, regardless of the number of affected digits, 2=Moderate redness and swelling of ankle of wrist, 3=Severe redness and swelling of the entire paw including digits, and 4=Maximally inflamed limb with involvement of multiple joints. On Day 10 post first immunization, rats were distributed evenly (according to the arthritis score) across the control and treatment groups. The CIA rats were given ten consecutive subcutaneous doses of EC0746 and methotrexate on days 10-19. For both drugs, an induction dose (500 nmol/kg) was given on days 10 and 15 and a maintenance dose (100 nmol/kg) was given on days 11-14 and 16-19. […] The arthritis score and animal body weight were recorded five times a week.

Series [2] can be described thus: Plasma stability / drug release after dosing in rats. Format: in vivo. As to conditions: after a AC dose in rats. The source says:
EC1496 releases ca. 50% less drug than the comparative example EC0746 after a AC dose in rats.

Another series relates to cells in culture. Description: Cytotoxicity to cells in culture. It counts as cell-based. The settings on record: read-out: typical IC50, cells in culture.
A further series concerns KB tumors. Description: KB tumor assay in nu/nu mice. The settings on record: for CR (%) / Cures (%) / PR (%) / Toxicity Avg. Weight Loss / Toxicity Deaths (%): TIW, 2 weeks. As for the experimental part:
Inhibition of Tumor Growth in Mice. Four to seven week-old mice (Balb/c or nu/nu strains) were purchased from Harlan Sprague Dawley, Inc. (Indianapolis, Ind.). Normal rodent chow contains a high concentration of folic acid (6 mg/kg chow); accordingly, mice used were maintained on the folate-free diet (Harlan diet #TD00434) for 1 week before tumor implantation to achieve serum folate concentrations close to the range of normal human serum. For tumor cell inoculation, 1×10^6 M109 cells (Balb/c strain) or 1×10^6 KB cells (nu/nu strain) in 100 μL were injected in the subcutis of the dorsal medial area. Tumors were measured in two perpendicular directions every 2-3 days using a caliper, and their volumes were calculated as 0.5×L×W^2, where L=measurement of longest axis in mm and W=measurement of axis perpendicular to L in mm. […] Dosing solutions were prepared fresh each day in PBS and administered through the lateral tail vein of the mice.
General KB Tumor Assay. The anti-tumor activity of the compounds described herein, when administered intravenously (i.v.) to tumor-bearing animals, was evaluated in nu/nu mice bearing subcutaneous KB tumors. Approximately 8 days post tumor inoculation in the subcutis of the right axilla with 1×10^6 KB cells (average tumor volume at to=50-100 mm^3), in mice (5/group) were injected i.v. three times a week (TIW), for 3 weeks with […] of the drug delivery conjugate or with an equivalent dose volume of PBS (control), unless otherwise indicated. Tumor growth was measured using calipers at 2-day or 3-day intervals in each treatment group. Tumor volumes were calculated using the equation V=a×b^2/2, where “a” is the length of the tumor and “b” is the width expressed in millimeters.
Toxicity as Measured by Weight Loss. The percentage weight change of the mice was determined in mice (5 mice/group) on selected days post-tumor inoculation (PTI), and graphed.
In vivo activity against tumors.

As to `CCCC(=O)OCN(C(=O)[C@@H](NC(=O)[C@H]1CCCCN1C)C(C)CC)[C@H](C[C@H](OC(C)=O)c1nc(C(=O)N[C@H](Cc2ccc(O)cc2)C[C@H](C)C(=O)NNC(=O)OCCSSC[C@H](NC(=O)[C@H](CCC(=O)NC[C@H](O)[C@@H](O)[C@H](O)[C@H](O)CO)NC(=O)[C@H](CCC(=O)O)NC(=O)[C@H](CCC(=O)NC[C@H](O)[C@@H](O)[C@H](O)[C@H](O)CO)NC(=O)[C@H](CCC(=O)O)NC(=O)[C@H](CCC(=O)NC[C@H](O)[C@@H](O)[C@H](O)[C@H](O)CO)NC(=O)CC[C@H](NC(=O)c2ccc(NCc3cnc4nc(N)[nH]c(=O)c4n3)cc2)C(=O)O)C(=O)O)cs1)C(C)C` (stereo partly shown) [EC0746], the “effect on collagen-induced arthritis (arthritis score)” value in series [1] is reported as “effective”.
As to `N=c1[nH]c(N)nc2ncc(CNc3ccc(C(=O)N[C@@H](CCC(=O)NNC(=O)OCCSSC[C@@H](NC(=O)[C@H](CCC(=O)NC[C@H](O)[C@@H](O)[C@H](O)[C@H](O)CO)NC(=O)[C@@H](CCC(=O)O)NC(=O)[C@H](CCC(=O)NC[C@H](O)[C@@H](O)[C@H](O)[C@H](O)CO)NC(=O)[C@@H](CCC(=O)O)NC(=O)[C@H](CCC(=O)NC[C@H](O)[C@@H](O)[C@H](O)[C@H](O)CO)NC(=O)CC[C@@H](NC(=O)c4ccc(NCc5cnc6nc(N)[nH]c(=O)c6n5)cc4)C(=O)O)C(=O)O)C(=O)O)cc3)nc12` [EC1496], the “less drug released than comparative example EC0746” value in series [2] is reported as “ca. 50%”.
One may read the pIC50 as −log10 of the IC50, conventionally taken in molar units. For the molecule `CCCC(=O)OCN(C(=O)[C@@H](NC(=O)[C@H]1CCCCN1C)[C@@H](C)CC)[C@H](C[C@@H](OC(C)=O)c1nc(C(=O)N[C@@H](Cc2ccc(O)cc2)C[C@H](C)C(=O)O)cs1)C(C)C` [Tubulysin B, tubulysin B], the pIC50 with cells in culture is around 9.00. Besides, in the series on KB tumors (0.1 μmol/kg (4 doses)), the “CR (%)” value turned out to be 0%, the “Cures (%)” value worked out at 0%, the “PR (%)” value is 0% and the “Toxicity Avg. Weight Loss” value is given as above 20%. The “Toxicity Deaths (%)” value in the series with KB tumors (0.1 μmol/kg (4 doses)) stood at 100%. Besides, in the series with KB tumors (0.2 μmol/kg (3 doses)), the “CR (%)” value amounted to 0%, the “Cures (%)” value is 0%, the “PR (%)” value amounted to 0% and the “Toxicity Avg. Weight Loss” value is listed as above 18%. Further, in the series on KB tumors (0.2 μmol/kg (3 doses)), the “Toxicity Deaths (%)” value stood at 100%. In the series on KB tumors (0.5 μmol/kg (1 dose)), the “CR (%)” value is on record as 0%, the “Cures (%)” value worked out at 0%, the “PR (%)” value came out at 0% and the “Toxicity Avg. Weight Loss” value is recorded as above 15%. Besides, the “Toxicity Deaths (%)” value in the series on KB tumors (0.5 μmol/kg (1 dose)) worked out at 100%. In addition, in the series on KB tumors (mouse, in vivo), the “toxicity in relation to anti-tumor effect in mice” value is reported as “dose-limiting toxicities in mice at levels that did not produce measurable anti-tumor effect”.
